Reference: patent publication US20170059568A1, “Identification of JC viral epitopes by cytotoxic T lymphocytes in healthy individuals and their use in assays” (JANSSEN PHARMACEUTICA NV, priority 2014, published 2017)

What was measured:
Assay type in all cases: cell-based, human
[1] = system: CD8+-enriched PBMC; assay: Direct ex vivo IFN-gamma ELISPOT validation of the top 10 peptides and their pool in 20 donors; conditions: for donors responding (T cell response): 20 selected donors covering 8 HLA allotypes
Experimental: The peptide pool of top 10 peptides originating from the initial screening (JCPyV pool) was solubilized in DMSO at 12.5 mg/ml per peptide with a final working concentration of the pool around 10 μM.
(§1) To enrich for the CD8+ T cell population, CD4+ cells were depleted from the PBMC using magnetic cell separation, according to the manufacturer's instructions (StemCell Technologies, Vancouver, Canada).
(§2) PBMC from selected subjects were thawed, washed and seeded onto anti-IFN-γ coated 96-well plates (Mabtech, Sweden) at 2.5*10^5 or 5*10^5 cells per well. Test antigens were diluted in the assay media and added to the cells at the specified doses. Assay medium containing DMSO, and assay medium alone were included as blank conditions for all donors. Cells were incubated for 16-18 hours in a humidified atmosphere at 37° C., 5% CO2. After the incubation period the cells were washed from the plates and an in-house spot development procedure was used to determine IFN-γ production (Lonza, Cambridge, UK). Upon completion of spot development, the plates were scanned, counted and QC analysis conducted using the ImmunoSpot Analyzer (Cellular Technologies Ltd, Cleveland, US).
(§3) The spot count per well (i.e. the number of IFN-γ secreting cells per well) in response to each test antigen was analyzed. Mean values were calculated from the triplicate wells for each test condition. Data analysis was then carried out using the distribution free resampling method (DFR). The DFR method compares each test condition against the blank for each donor and calculates whether the difference is statistically significant (p<0.1).
(§4) The ELISPOT with CD8+-enriched PBMC (5*10^5 cells per well) with the standard ELISPOT assay medium without overnight resting period was used in further experiments.
To verify whether the newly identified epitopes were really immunodominant, the 10 newly identified peptides were tested individually or as a peptide pool in the optimized CD8+ T cell enriched direct ex vivo ELISPOT assay. Twenty subjects were selected which cover 8 of the 10 HLA allotypes that were initially selected. […]

[2] = system: CD8+-enriched PBMC; assay: Direct ex vivo IFN-gamma ELISPOT screening of 98 predicted JCPyV MHC class I peptides in 92 healthy subjects; conditions: for Positive Donors (p < 0.1): number of responding donors among about 10 donors of the predicted HLA allotype, 5*10^5 CD8+-enriched PBMC per well; for Positive Donors (p < 0.1) / tested donors/subjects with significant T cell response to the peptide: peptide 10 μM; for tested donors/subjects with significant T cell response to the peptide: initial screening, allotype-specific subjects; for JCPyV-seronegative subjects reacting against the peptide, out of 22: 22 JCPyV VP1 antibody-seronegative subjects with CTL response; for JCPyV-seronegative subjects reacting against the peptide: 22 JCPyV VP1 antibody-seronegative subjects with CTL response (adj p<0.1); for all subjects tested showing a positive response: independent of HLA-type
Experimental: The 9-mer and 10-mer JCPy virus test peptides were synthesized and HPLC purified to >90% (Thermo Fisher Scientific, GmbH). Peptides were solubilized in DMSO and used in ELISPOT (Mabtech, Sweden) at 10 μM.
as §1, §2, §3, §4
All viral protein (VP1, VP2, agnoprotein, common T, large T Antigen (LTAg), and small t Antigen (stAg) from both JCPyV and BKPyV) sequences were scanned for the presence of putative HLA class I restricted epitopes. Profiling is performed at the allotype level for 16A and 12B, i.e. 28 HLA class I receptors in total. […] Therefore, during the further selection of epitopes with high expected immunogenicity potential, the following aspects were considered: high HLA-A and -B impact of epitopes, high promiscuity of epitopes, specificity to JCPyV proteins, potential preference for 9-mer peptides, minimal similarity of epitopes to human proteome sequences, location of epitopes in the JCPyV protein sequences Based on the in silico predictions, 98 peptides of the JCPyV proteins were finally selected, representing potential T cell epitopes for the major HLA class I allotypes in the global population. To test immunogenicity of these 98 peptides the ten most common HLA allotypes were selected, 5 HLA-A and 5 HLA-B allotypes (A*0101, A*0201, A*0301, A*1101, A*2402, B*0702, B*0801, B*1501, B*3501 and B*4001) and for each HLA allotype we aimed to have approximately 10 peptides that gave the strongest signal in Epibase. Alongside, the positive controls (CEF, VP1 peptide pool, and VP1 p100) and negative controls (medium blank and DMSO) were tested. The control peptide pools gave responses in the expected range, in 87% and 60% of all subjects tested, showing a positive response to the CEF and JCPyV VP1 peptide pools, respectively. […] The results for the other proteins can be found in supplementary Table 1 and 2.

[3] = system: CD8+-enriched PBMC; assay: Direct ex vivo IFN-gamma ELISPOT optimization (cell amount, CD8+ enrichment, medium, overnight rest)
Experimental: as §2
The spot count per well (i.e. the number of IFN-γ secreting cells per well) in response to each test antigen was analyzed. Mean values were calculated from the triplicate wells for each test condition. […]
It has been reported that for some viral peptides, the use of serum-free assay medium and overnight resting of the PBMC before stimulation with peptide can increase peptide specific T cell responses. The influence of assay medium and overnight resting of PBMC was evaluated using only CD8+-enriched PBMC from 5 HLA-A*02 subjects and one non-HLA-A*02 subject.

FESDSPNRDM (JC polyomavirus) [AP00457]
donors responding (T cell response) [1]: 90% | Positive Donors (p < 0.1) [2]: 6

FLRSSPLVWI (JC polyomavirus) [AP00386]
donors with significant T cell response out of 20 tested ([1]; 20 donors, peptides tested separately and as pool): 20 | donors responding (T cell response) [1]: 100% | tested donors/subjects with significant T cell response to the peptide [2]: 80% | Positive Donors (p < 0.1) [2]: 8

GEAAATIEV (JC polyomavirus) [AP00460]
Positive Donors (p < 0.1) [2]: 3

ILMWEAVTL [AP00410]
JCPyV-seronegative subjects reacting against the peptide, out of 22 [2]: almost all responded | JCPyV-seronegative subjects reacting against the peptide [2]: 82% | subjects showing a positive response out of 92 tested ([2]; all 92 subjects): 44 | all subjects tested showing a positive response ([2]; all 92 subjects): 37% | all subjects tested showing a positive response ([2]; all 92 subjects, listed as JCPyV VP1 p100 9-mer): 48% | significant responses in A*0201 and A*2402 allotypes ([2]; donors with A*0201 and A*2402 allotypes): 58% | Positive Donors (p < 0.1) [2]: 7 | subjects with significant IFN-γ response (DFR method) ([3]; FIG. 1 condition C: CD8+-enriched PBMC 5*10^5 per well, 3 HLA-A*02 and one non-HLA-A*02 subject): two subjects responded | donors with significant IFN-γ response ([3]; FIG. 2 condition D: CD8+-enriched PBMC, serum containing medium, no overnight rest, 5 HLA-A*02 and one non-HLA-A*02 subject): three of them also responded

ILMWEAVTLK [AP00388, JCPyV VP1 p100 10-mer]
potency at inducing CD8+ T cell responses, 10-mer compared with 9-mer ([2]; A*2402 donors): far less potent than the 9-mer

LTCGNILMW (JC polyomavirus) [AP00367]
Positive Donors (p < 0.1) [2]: 4

MAGVAWIHCL (JC polyomavirus) [AP00423]
tested donors/subjects with significant T cell response to the peptide [2]: 90% | Positive Donors (p < 0.1) [2]: 9

RILIFLLEFL (JC polyomavirus) [AP00402]
JCPyV-seronegative subjects reacting against the peptide, out of 22 [2]: 8 | JCPyV-seronegative subjects reacting against the peptide [2]: 36% | Positive Donors (p < 0.1) [2]: 6

SAIAQLGYRF (JC polyomavirus) [AP00441]
Positive Donors (p < 0.1) [2]: 5

STISQAFWNL (JC polyomavirus) [AP00400]
Positive Donors (p < 0.1) [2]: 6

YPISFLLTDL (JC polyomavirus) [AP00377]
Positive Donors (p < 0.1) [2]: 5
